Active and inactive are the calls of the source. The calls are words filed in the database; no cut-off is given here.
Columns and labels:
[1] = Upregulation of NGFR expression level in human HepG2 cells assessed as fold change by KEGG enrichment analysis; type: functional
[2] = Downregulation of DKK1 expression level in human HepG2 cells assessed as fold change by KEGG enrichment analysis; type: functional
[3] = Upregulation of GADD45B expression level in human HepG2 cells assessed as fold change by KEGG enrichment analysis; type: functional
HepG2 [4] = assay: Induction of cell cycle arrest in human HepG2 cells assessed as accumulation of cells at 2N phase at 10 uM incubated for 24 hrs by PI staining based flow cytometry analysis (reference value: 26.0%); type: functional
HepG2 [5] = assay: Induction of cell cycle arrest in human HepG2 cells assessed as assessed as accumulation of cells at >G2/M phase at 10 uM incubated for 12 hrs by PI staining based flow cytometry analysis (reference value: 28.0%); type: functional
[6] = Upregulation of TRAF1 expression level in human HepG2 cells assessed as fold change by KEGG enrichment analysis; type: functional
[7] = Toxicity in Balb/c mouse assessed as effect on lung at 6 mg/kg, iv measured after 14 days by H and E staining based analysis; type: organism-based; details: in vivo, 336 h, time 14 day
[8] = Toxicity in Balb/c mouse assessed as effect on kidney at 6 mg/kg, iv measured after 14 days by H and E staining based analysis; type: organism-based; details: in vivo, 336 h, time 14 day
HepG2 [9] = assay: Induction of apoptosis in human HepG2 cells assessed as early apoptotic cells at 20 uM incubated for 48 hrs by annexin V-FITC/PI staining based flow cytometry analysis (reference value: 0.50%); type: functional
HepG2 [10] = assay: Induction of apoptosis in human HepG2 cells assessed as late apoptotic cells at 20 uM incubated for 48 hrs by annexin V-FITC/PI staining based flow cytometry analysis (reference value: 0.16%); type: functional
[11] = Toxicity in Balb/c mouse assessed as effect on spleen at 6 mg/kg, iv measured after 14 days by H and E staining based analysis; type: organism-based; details: in vivo, 336 h, time 14 day
HepG2 [12] = assay: Upregulation of p53 level in human HepG2 cells at 5 to 20 uM measured after 48 hrs by Western blot analysis; type: functional, cell-based; details: dose 5-20 µM
[13] = Upregulation of […] expression level in human HepG2 cells assessed as fold change by KEGG enrichment analysis; type: functional
[14] = Effect on MAML3 expression level in human HepG2 cells assessed as fold change by KEGG enrichment analysis; type: functional
HepG2 [15] = assay: Induction of cell cycle arrest in human HepG2 cells assessed as accumulation of cells at <2N phase at 20 uM incubated for 48 hrs by PI staining based flow cytometry analysis (reference value: 0.027%); type: functional
HepG2 [16] = assay: Induction of cell cycle arrest in human HepG2 cells assessed as accumulation of cells at S phase at 20 uM incubated for 48 hrs by PI staining based flow cytometry analysis (reference value: 39.6%); type: functional
Cell membrane [17] = assay: Induction of mitochondrial membrane potential loss in human HepG2 cells assessed as decrease in fluorescence at 10 uM by Rhodamine 123 staining based flow cytometry; type: cell membranes; details: time 12-48 hrs, TDE = time-dependent effect
Cell membrane [18] = assay: Induction of mitochondrial membrane potential loss in human HepG2 cells assessed as decrease in fluorescence at 20 uM measured after 48 hrs by Rhodamine 123 staining based flow cytometry (reference value: 66.8%); type: cell membranes; parameters: scale not given: the % may be the effect or the level left
[19] = target: Voltage-gated inwardly rectifying potassium channel KCNH2 (Homo sapiens, UniProt Q12809); assay: Inhibition of human ERG; type: toxicity
Chain of Voltage-gated inwardly rectifying potassium channel KCNH2 (Q12809 whole entry): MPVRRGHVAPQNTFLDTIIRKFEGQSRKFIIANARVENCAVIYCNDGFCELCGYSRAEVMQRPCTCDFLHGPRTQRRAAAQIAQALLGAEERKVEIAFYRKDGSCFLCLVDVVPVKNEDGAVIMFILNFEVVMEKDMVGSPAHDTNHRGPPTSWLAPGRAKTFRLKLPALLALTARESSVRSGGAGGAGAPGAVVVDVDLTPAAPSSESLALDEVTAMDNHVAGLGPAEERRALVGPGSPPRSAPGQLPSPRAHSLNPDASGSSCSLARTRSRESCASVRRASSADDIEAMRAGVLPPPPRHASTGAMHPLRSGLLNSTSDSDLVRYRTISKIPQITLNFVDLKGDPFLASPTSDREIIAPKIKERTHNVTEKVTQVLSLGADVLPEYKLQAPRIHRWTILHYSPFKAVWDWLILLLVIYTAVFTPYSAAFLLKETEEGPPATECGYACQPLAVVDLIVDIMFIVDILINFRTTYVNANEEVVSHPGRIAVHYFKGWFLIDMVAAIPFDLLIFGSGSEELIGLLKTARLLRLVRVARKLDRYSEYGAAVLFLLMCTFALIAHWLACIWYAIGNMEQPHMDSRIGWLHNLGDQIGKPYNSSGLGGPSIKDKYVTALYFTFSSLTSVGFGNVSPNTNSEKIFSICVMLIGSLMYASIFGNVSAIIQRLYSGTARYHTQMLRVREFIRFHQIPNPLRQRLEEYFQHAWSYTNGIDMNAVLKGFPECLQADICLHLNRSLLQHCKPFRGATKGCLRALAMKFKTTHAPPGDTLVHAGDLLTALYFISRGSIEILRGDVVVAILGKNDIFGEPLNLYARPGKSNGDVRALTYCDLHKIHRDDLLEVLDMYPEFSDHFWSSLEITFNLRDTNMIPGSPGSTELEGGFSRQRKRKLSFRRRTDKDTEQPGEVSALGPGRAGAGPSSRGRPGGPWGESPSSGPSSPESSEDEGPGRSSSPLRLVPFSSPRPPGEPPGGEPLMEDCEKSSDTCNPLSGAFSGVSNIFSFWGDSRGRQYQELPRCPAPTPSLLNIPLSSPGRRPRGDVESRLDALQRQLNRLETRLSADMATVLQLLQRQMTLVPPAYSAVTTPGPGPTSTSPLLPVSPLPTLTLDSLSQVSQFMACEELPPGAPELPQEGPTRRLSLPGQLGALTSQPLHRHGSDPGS

HepG2 [20] = assay: Induction of cell cycle arrest in human HepG2 cells assessed as accumulation of cells at G2/M phase at 10 uM incubated for 24 hrs by PI staining based flow cytometry analysis (reference value: 6.38%); type: functional
HepG2 [21] = assay: Induction of apoptosis in human HepG2 cells assessed as late apoptotic cells at 5 uM incubated for 48 hrs by annexin V-FITC/PI staining based flow cytometry analysis (reference value: 0.16%); type: functional
HepG2 [22] = assay: Induction of cell cycle arrest in human HepG2 cells assessed as accumulation of cells at >G2/M phase at 10 uM incubated for 24 hrs by PI staining based flow cytometry analysis (reference value: 28.0%); type: functional
HepG2 [23] = assay: Induction of morphological changes in human HepG2 cells assessed as cell shrinkage at 40 uM measured after 12 to 24 hrs by fluorescence inverted microscopic analysis; type: functional, cell-based; details: time 12-24 hrs
[24] = Downregulation of RSPO3 expression level in human HepG2 cells assessed as fold change by KEGG enrichment analysis; type: functional
HepG2 [25] = assay: Induction of morphological changes in human HepG2 cells assessed as deterioration of cell membrane integrity at 40 uM measured after 12 to 24 hrs by fluorescence inverted microscopic analysis; type: functional, cell-based; details: time 12-24 hrs
HepG2 [26] = assay: Induction of cell cycle arrest in human HepG2 cells assessed as accumulation of cells at <2N phase at 10 uM incubated for 48 hrs by PI staining based flow cytometry analysis (reference value: 0.027%); type: functional
HepG2 [27] = assay: Induction of cell cycle arrest in human HepG2 cells assessed as accumulation of cells at S phase at 5 uM incubated for 48 hrs by PI staining based flow cytometry analysis (reference value: 39.6%); type: functional
HepG2 [28] = assay: Induction of apoptosis in human HepG2 cells assessed as increase in caspase 3 activity at 5 to 10 uM measured after 24 hrs by green-nuc staining based fluorescence microscopic analysis; type: functional, cell-based; details: dose 5-10 µM
[29] = Toxicity in Balb/c mouse assessed as effect on liver at 6 mg/kg, iv measured after 14 days by H and E staining based analysis; type: organism-based; details: in vivo, 336 h, time 14 day
HepG2 [30] = assay: Induction of cell cycle arrest in human HepG2 cells assessed as accumulation of cells at S phase at 10 uM incubated for 48 hrs by PI staining based flow cytometry analysis (reference value: 39.6%); type: functional
HepG2 [31] = assay: Induction of apoptosis in human HepG2 cells assessed as late apoptotic cells at 10 uM incubated for 48 hrs by annexin V-FITC/PI staining based flow cytometry analysis (reference value: 0.16%); type: functional
HepG2 [32] = assay: Induction of cell cycle arrest in human HepG2 cells assessed as accumulation of cells at G2/M phase at 5 uM incubated for 48 hrs by PI staining based flow cytometry analysis (reference value: 6.38%); type: functional
[33] = Upregulation of SESN2 expression level in human HepG2 cells assessed as fold change by KEGG enrichment analysis; type: functional
[34] = Upregulation of CXCL2 expression level in human HepG2 cells assessed as fold change by KEGG enrichment analysis; type: functional
HepG2 [35] = assay: Induction of apoptosis in human HepG2 cells assessed as necrotic cells at 20 uM incubated for 48 hrs by annexin V-FITC/PI staining based flow cytometry analysis (reference value: 0%); type: functional
HepG2 [36] = assay: Induction of apoptosis in human HepG2 cells assessed as viable cells at 10 uM incubated for 48 hrs by annexin V-FITC/PI staining based flow cytometry analysis (reference value: 99.3%); type: functional; details: read-out: Activity
HepG2 [37] = assay: Induction of cell cycle arrest in human HepG2 cells incubated for 48 hrs by PI staining based flow cytometry analysis; type: functional; details: dose 5-20 µM
in vitro = details: human, Caco-2
Description: Apparent permeability of compound in human Caco-2 cells at 10 uM measured upto 120 mins by LC-MS/MS analysis

Structure (SMILES): CC(C)C[C@H]1NC(=O)[C@H]([C@@H](C)OCc2ccccc2)NC(=O)[C@H]2CCCN2C(=O)CN2C(=O)c3ccccc3[C@@]2(O)CN(Cc2ccccc2)C(=O)[C@H](Cc2ccccc2)NC(=O)[C@H]2CCCN2C(=O)[C@H](Cc2c[nH]c3ccccc23)NC1=O
- fold change (FC) [1]: 1.584
- fold change (FC) [2]: -3.288
- fold change (FC) [3]: 1.146
- Activity (HepG2 [4]): 23.3%
- Activity (HepG2 [5]): 4.68%
- fold change (FC) [6]: 1.094
- Activity [7]: Non-Toxic
- Activity [8]: Non-Toxic
- Activity (HepG2 [9]): 41.1%
- Activity (HepG2 [10]): 6.88%
- Activity [11]: Non-Toxic
- Activity (HepG2 [12]): Active
- fold change (FC) [13]: 1.218
- fold change (FC) [14]: -1.198
- Activity (HepG2 [15]): 28.1%
- Activity (HepG2 [16]): 11.7%
- Activity (Cell membrane [17]): Tde
- Activity (Cell membrane [18]): 18.4%
- inhibition (INH) [19]: Active
- Activity (HepG2 [20]): 13%
- Activity (HepG2 [21]): 2.4%
- Activity (HepG2 [22]): 13.5%
- Activity (HepG2 [23]): Active
- fold change (FC) [24]: -1.578
- Activity (HepG2 [25]): Active
- Activity (HepG2 [26]): 20.2%
- Activity (HepG2 [27]): 12.3%
- Activity (HepG2 [28]): Active
- Activity [29]: Non-Toxic
- Activity (HepG2 [30]): 23.3%
- Activity (HepG2 [31]): 4.57%
- Activity (HepG2 [32]): 18.9%
- fold change (FC) [33]: 2.86
- fold change (FC) [34]: 1.751
- Activity (HepG2 [35]): 0.02%
- viability at 10 µM (HepG2 [36]): 68.1%
- Activity (HepG2 [37]): Dose-Dependent Effect
- Papp at 2 h, 10 µM (in vitro): > 20 ×10⁻⁶ cm/s

From ChEMBL document CHEMBL5550186, “Exploring the Potential of Cyclic Peptidyl Antitumor Agents Derived from Natural Macrocyclic Peptide Phakellistatin 13” (J Med Chem, 2024)
